Test results taken from US5041567A, “Antibacterial monic acid derivatives” (Beecham Group plc, priority 1982, dated 1991).
Values after ≈ are worked out from the molar mass of the structure shown. Where two headings read alike, the source gives them in different places.

Tests used:
[1] = tested on: M. pneumoniae ATCC 15492; test: MIC against mycoplasma in vitro; format: cell-based
[2] = tested on: Ps. aeruginosa NCTC 10662; test: MIC against human bacteria in vitro; format: cell-based; conditions: Ps. aeruginosa NCTC 10662, 5% chocolated horse blood agar, 18 hours
[3] = tested on: E. coli ESS; test: MIC against human bacteria in vitro; format: cell-based; conditions: E. coli ESS, 5% chocolated horse blood agar, 18 hours
[4] = tested on: E. coli E1; test: MIC against veterinary bacteria in vitro
Procedure: (§1) The activity of the compounds of the Examples against various veterinarily important bacteria, was assayed in vitro using two-fold serial dilutions in Diagnostic Sensitivity Test Agar inoculated with 10^4 organisms.

[5] = tested on: Pasteurella multocida 1633; test: MIC against human bacteria in vitro; format: cell-based; conditions: Pasteurella multocida 1633, 5% chocolated horse blood agar, 18 hours
[6] = tested on: Haemophilus influenzae Wy21; test: MIC against human bacteria in vitro; format: cell-based; conditions: Haemophilus influenzae Wy21, 5% chocolated horse blood agar, 18 hours
[7] = tested on: M. suipneumoniae ATCC 25095; test: MIC against mycoplasma in vitro; format: cell-based; conditions: M. suipneumoniae ATCC 25095, 6 days, 37° C.
[8] = tested on: M. suipneumoniae NB12; test: MIC against mycoplasma in vitro; format: cell-based
[9] = tested on: M. suipneumoniae TAM 6N; test: MIC against mycoplasma in vitro; format: cell-based
[10] = tested on: S. typhimurium S18; test: MIC against veterinary bacteria in vitro
Procedure: as §1

[11] = tested on: Strep. suis (group D) SPS11; test: MIC against veterinary bacteria in vitro
Procedure: as §1

[12] = tested on: Strep. agalactiae SPA1; test: MIC against veterinary bacteria in vitro
Procedure: as §1

[13] = tested on: M. gallisepticum S6; test: MIC against mycoplasma in vitro; format: cell-based
[14] = tested on: Staph. aureus 152 (pen. sens); test: MIC against veterinary bacteria in vitro
Procedure: as §1

[15] = tested on: M. suipneumoniae HK(2); test: MIC against mycoplasma in vitro; format: cell-based
[16] = tested on: S. dublin S7; test: MIC against veterinary bacteria in vitro
Procedure: as §1

[17] = tested on: M. suipneumoniae UCD 1; test: MIC against mycoplasma in vitro; format: cell-based; conditions: M. suipneumoniae UCD 1, 6 days, 37° C.
[18] = tested on: Past. multocida PA2; test: MIC against veterinary bacteria in vitro
Procedure: as §1

[19] = tested on: Staph. aureus W2827; test: MIC against human bacteria in vitro; format: cell-based; conditions: Staph. aureus W2827, 5% chocolated horse blood agar, 18 hours
[20] = tested on: Bord. bronchiseptica B09; test: MIC against veterinary bacteria in vitro
Procedure: as §1

[21] = tested on: M. hyorhinis ATCC 23234; test: MIC against mycoplasma in vitro; format: cell-based
[22] = tested on: Staph. aureus Russell; test: MIC against human bacteria in vitro; format: cell-based; conditions: Staph. aureus Russell, 5% chocolated horse blood agar, 18 hours
[23] = tested on: Strep. spp. 64/848-C; test: MIC against human bacteria in vitro; format: cell-based; conditions: Strep. spp. 64/848-C, 5% chocolated horse blood agar, 18 hours
[24] = tested on: M. suipneumoniae NCTC 10110; test: MIC against mycoplasma in vitro; format: cell-based
[25] = tested on: Strep. agalactiae 2788-B; test: MIC against human bacteria in vitro; format: cell-based; conditions: Strep. agalactiae 2788-B, 5% chocolated horse blood agar, 18 hours
[26] = tested on: M. suipneumoniae JF 435; test: MIC against mycoplasma in vitro; format: cell-based; conditions: M. suipneumoniae JF 435, 6 days, 37° C.
[27] = tested on: M. suipneumoniae MS 16; test: MIC against mycoplasma in vitro; format: cell-based
[28] = tested on: Staph. aureus Oxford; test: MIC against veterinary bacteria in vitro
Procedure: as §1

[29] = tested on: Strep. pneumoniae CN33; test: MIC against human bacteria in vitro; format: cell-based; conditions: Strep. pneumoniae CN33, 5% chocolated horse blood agar, 18 hours
[30] = tested on: Erysipelothrix rhusiopathiae NCTC 8163; test: MIC against veterinary bacteria in vitro
Procedure: as §1

[31] = tested on: Bord. bronchiseptica B08; test: MIC against veterinary bacteria in vitro
Procedure: as §1

[32] = tested on: M. bovigenitalium ATCC 14173; test: MIC against mycoplasma in vitro; format: cell-based
[33] = tested on: E. coli NCTC 10418; test: MIC against veterinary bacteria in vitro
Procedure: as §1

[34] = Pseudomonas aeruginosa, NCTC10662, read-out: MIC
[35] = Escherichia coli, read-out: MIC
[36] = Mesomycoplasma hyopneumoniae, ATCC25095, 144 h, read-out: MIC
[37] = Salmonella enterica, TYPHIMURIUM, 18 h
[38] = Streptococcus agalactiae, SPA1, 18 h
[39] = Mesomycoplasma hyopneumoniae, UCD1, 144 h, read-out: MIC
[40] = Pasteurella multocida, PA2, 18 h
[41] = Staphylococcus aureus, read-out: MIC
[42] = Bordetella bronchiseptica, B09, 18 h
[43] = Streptococcus agalactiae, read-out: MIC
[44] = Mesomycoplasma hyopneumoniae, JF435, 144 h, read-out: MIC
[45] = Mesomycoplasma hyopneumoniae, MS16, 144 h
[46] = Streptococcus pneumoniae, read-out: MIC
[47] = Erysipelothrix rhusiopathiae, NCTC8163, 18 h
[48] = Bordetella bronchiseptica, B08, 18 h
[49] = Escherichia coli, NCTC10418, 18 h

CC(=Cc1cc(C)no1)CC1OCC(CC2OC2C(C)C(C)O)C(O)C1O (stereo not drawn) [Example 30, 3-Methyl-5-(1-normon-2-yl) isoxazole A]
MIC ([1]; M. pneumoniae ATCC 15492, 6 days, 37° C.): 10 µg/mL (≈ 26.2 µM)
MIC [2]: > 128 µg/mL
MIC [3]: 8.0 µg/mL (≈ 21 µM)
MIC ([4]; E. coli E1, Diagnostic Sensitivity Test Agar, 18 hours, 37° C.): > 80 µg/mL
MIC [5]: 8.0 µg/mL (≈ 21 µM)
MIC [6]: < 0.06 µg/mL
MIC [7]: 2.5 µg/mL (≈ 6.55 µM)
MIC ([8]; M. suipneumoniae NB12, Friis broth, 0.9% agarose, 6 days, 37° C.): 5.0 µg/mL (≈ 13.1 µM)
MIC ([9]; M. suipneumoniae TAM 6N, 6 days, 37° C.): 5.0 µg/mL (≈ 13.1 µM)
MIC ([10]; S. typhimurium S18, Diagnostic Sensitivity Test Agar, 18 hours): > 80 µg/mL
MIC ([11]; Strep. suis (group D) SPS11, Diagnostic Sensitivity Test Agar, 18 hours): > 80 µg/mL
MIC ([12]; Strep. agalactiae SPA1, Diagnostic Sensitivity Test Agar, 18 hours): 40 µg/mL (≈ 105 µM)
MIC ([13]; M. gallisepticum S6, 6 days, 37° C.): > 10 µg/mL
MIC ([14]; Staph. aureus 152 (pen. sens), Diagnostic Sensitivity Test Agar, 18 hours): 2.5 µg/mL (≈ 6.55 µM)
MIC ([15]; M. suipneumoniae HK(2), 6 days, 37° C.): 2.5 µg/mL (≈ 6.55 µM)
MIC ([16]; S. dublin S7, Diagnostic Sensitivity Test Agar, 18 hours): > 80 µg/mL
MIC [17]: 2.5 µg/mL (≈ 6.55 µM)
MIC ([18]; Past. multocida PA2, Diagnostic Sensitivity Test Agar, 18 hours): 0.312 µg/mL (≈ 0.818 µM)
MIC [19]: 16 µg/mL (≈ 41.9 µM)
MIC ([20]; Bord. bronchiseptica B09, Diagnostic Sensitivity Test Agar, 18 hours): > 80 µg/mL
MIC ([21]; M. hyorhinis ATCC 23234, 6 days, 37° C.): 0.5 µg/mL (≈ 1.31 µM)
MIC [22]: 16 µg/mL (≈ 41.9 µM)
MIC [23]: > 128 µg/mL
MIC ([24]; M. suipneumoniae NCTC 10110, 6 days, 37° C.): 2.5 µg/mL (≈ 6.55 µM)
MIC [25]: 128 µg/mL (≈ 336 µM)
MIC [26]: 5.0 µg/mL (≈ 13.1 µM)
MIC ([27]; M. suipneumoniae MS 16, 6 days, 37° C.): 2.5 µg/mL (≈ 6.55 µM)
MIC ([28]; Staph. aureus Oxford, Diagnostic Sensitivity Test Agar, 18 hours): 2.5 µg/mL (≈ 6.55 µM)
MIC [29]: 128 µg/mL (≈ 336 µM)
MIC ([30]; Erysipelothrix rhusiopathiae NCTC 8163, Diagnostic Sensitivity Test Agar, 18 hours): > 80 µg/mL
MIC ([31]; Bord. bronchiseptica B08, Diagnostic Sensitivity Test Agar, 18 hours): > 80 µg/mL
MIC ([32]; M. bovigenitalium ATCC 14173, 6 days, 37° C.): 0.25 µg/mL (≈ 0.655 µM)
MIC ([33]; E. coli NCTC 10418, Diagnostic Sensitivity Test Agar, 18 hours, 37° C.): > 80 µg/mL

C/C(=C\c1ncc(-c2ccc(Br)cc2)o1)C[C@@H]1OC[C@H](C[C@@H]2O[C@H]2[C@@H](C)[C@H](C)O)[C@@H](O)[C@H]1O [Example 18, 5-p-Bromophenyl-2-(1-normon-2-yl) oxazole A]
MIC ([1]; Mycoplasmoides pneumoniae, ATCC15492, 144 h): 1 µg/mL (≈ 1.91 µM)
MIC [2, 34]: > 128 µg/mL
MIC [3, 35]: 8 µg/mL (≈ 15.3 µM)
MIC ([4]; Escherichia coli, E1, 18 h): > 80 µg/mL
MIC ([5]; read-out: MIC): 16 µg/mL (≈ 30.6 µM)
MIC ([6]; read-out: MIC): 4 µg/mL (≈ 7.66 µM)
MIC [7, 36]: 0.5 µg/mL (≈ 0.957 µM)
MIC ([8]; Mesomycoplasma hyopneumoniae, 144 h, M. suipneumoniae NB12, Friis broth, 0.9% agarose, 6 days, 37° C., read-out: MIC): 0.5 µg/mL (≈ 0.957 µM)
MIC ([9]; Mesomycoplasma hyopneumoniae, TAM6N, 144 h): 1 µg/mL (≈ 1.91 µM)
MIC [10, 37]: > 80 µg/mL
MIC ([11]; Streptococcus suis, 18 h): 10 µg/mL (≈ 19.1 µM)
MIC [12, 38]: 0.625 µg/mL (≈ 1.2 µM)
MIC ([13]; Mycoplasmoides gallisepticum, S6, 144 h): 1 µg/mL (≈ 1.91 µM)
MIC ([14]; Staphylococcus aureus, 18 h): 0.312 µg/mL (≈ 0.597 µM)
MIC ([15]; Mesomycoplasma hyopneumoniae, 144 h): 1 µg/mL (≈ 1.91 µM)
MIC ([16]; Salmonella enterica, S7, 18 h): > 80 µg/mL
MIC [17, 39]: 0.5 µg/mL (≈ 0.957 µM)
MIC [18, 40]: 1.25 µg/mL (≈ 2.39 µM)
MIC [19, 41]: 8 µg/mL (≈ 15.3 µM)
MIC [20, 42]: 10 µg/mL (≈ 19.1 µM)
MIC ([21]; Mesomycoplasma hyorhinis, ATCC23234, 144 h): 0.25 µg/mL (≈ 0.479 µM)
MIC [22, 41]: 8 µg/mL (≈ 15.3 µM)
MIC ([23]; read-out: MIC): 4 µg/mL (≈ 7.66 µM)
MIC ([24]; Mesomycoplasma hyopneumoniae, NCTC10110, 144 h): 1 µg/mL (≈ 1.91 µM)
MIC [25, 43]: 8 µg/mL (≈ 15.3 µM)
MIC [26, 44]: 0.5 µg/mL (≈ 0.957 µM)
MIC [27, 45]: 0.25 µg/mL (≈ 0.479 µM)
MIC ([28]; Staphylococcus aureus, 18 h): 0.625 µg/mL (≈ 1.2 µM)
MIC [29, 46]: 4 µg/mL (≈ 7.66 µM)
MIC [30, 47]: 40 µg/mL (≈ 76.6 µM)
MIC [31, 48]: 40 µg/mL (≈ 76.6 µM)
MIC ([32]; 144 h): 0.1 µg/mL (≈ 0.191 µM)
MIC [33, 49]: > 80 µg/mL

C/C(=C\c1ncc(-c2ccc(C(=O)O)cc2)o1)C[C@@H]1OC[C@H](C[C@@H]2O[C@H]2[C@@H](C)[C@H](C)O)[C@@H](O)[C@H]1O [Example 17, Sodium 4-[2-(1-normon-2-yl)-5-oxazolyl] benzoate A]
MIC ([1]; Mycoplasmoides pneumoniae, ATCC15492, 144 h, M. pneumoniae ATCC 15492, 6 days, 37° C., read-out: MIC): > 10 µg/mL
MIC [2, 34]: > 64 µg/mL
MIC [3, 35]: 16 µg/mL
MIC ([4]; Escherichia coli, E1, 18 h): > 80 µg/mL
MIC ([5]; read-out: MIC): 8 µg/mL
MIC ([6]; read-out: MIC): 2 µg/mL
MIC [7, 36]: 5 µg/mL
MIC ([8]; Mesomycoplasma hyopneumoniae, NB12, 144 h): 2.5 µg/mL
MIC ([9]; Mesomycoplasma hyopneumoniae, TAM6N, 144 h, M. suipneumoniae TAM 6N, 6 days, 37° C., read-out: MIC): 10 µg/mL
MIC [10, 37]: > 80 µg/mL
MIC ([11]; Streptococcus suis, 18 h): 40 µg/mL
MIC [12, 38]: 40 µg/mL
MIC ([13]; Mycoplasmoides gallisepticum, 144 h, M. gallisepticum S6, 6 days, 37° C., read-out: MIC): > 10 µg/mL
MIC ([14]; Staphylococcus aureus, 18 h): 10 µg/mL
MIC ([15]; Mesomycoplasma hyopneumoniae, 144 h, M. suipneumoniae HK(2), 6 days, 37° C., read-out: MIC): 10 µg/mL
MIC ([16]; Salmonella enterica, S7, 18 h): > 80 µg/mL
MIC [17, 39]: 5 µg/mL
MIC [18, 40]: 1.25 µg/mL
MIC [19, 41]: > 64 µg/mL
MIC [20, 42]: 40 µg/mL
MIC ([21]; Mesomycoplasma hyorhinis, ATCC23234, 144 h, M. hyorhinis ATCC 23234, 6 days, 37° C., read-out: MIC): 5 µg/mL
MIC [22, 41]: > 64 µg/mL
MIC ([23]; read-out: MIC): 32 µg/mL
MIC ([24]; Mesomycoplasma hyopneumoniae, NCTC10110, 144 h, M. suipneumoniae NCTC 10110, 6 days, 37° C., read-out: MIC): > 10 µg/mL
MIC [25, 43]: 32 µg/mL
MIC [26, 44]: 5 µg/mL
MIC [27, 45]: 2.5 µg/mL
MIC ([28]; Staphylococcus aureus, 18 h): 20 µg/mL
MIC [29, 46]: 64 µg/mL
MIC [30, 47]: 80 µg/mL
MIC [31, 48]: > 80 µg/mL
MIC ([32]; 144 h, M. bovigenitalium ATCC 14173, 6 days, 37° C., read-out: MIC): 5 µg/mL
MIC [33, 49]: > 80 µg/mL
